According to ChEMBL document CHEMBL1201862, “PubChem BioAssay data set” (2004):
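Test compounds were applied to cells in 96-well plates for 48 hours at 5 doses. At the GI50, growth is halved.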 The source made the active and inactive calls. Cut-off read from the data, not from the text of the source: active = GI50 up to about 1.1 µM and inactive = higher.

Tests used:
Experiment in all cases: DTP human tumour cell line panel, 48 h
OVCAR-4 = tested on: OVCAR-4
MCF7 = tested on: MCF7
HOP-62 = tested on: HOP-62
BT-549 = tested on: BT-549
SK-OV-3 = tested on: SK-OV-3
HCT-116 = tested on: HCT-116
LOX IMVI = tested on: LOX IMVI
RXF 393 = tested on: RXF 393
HOP-92 = tested on: HOP-92
EKVX = tested on: EKVX
SN12C = tested on: SN12C
PC-3 = tested on: PC-3
OVCAR-8 = tested on: OVCAR-8
TK-10 = tested on: TK-10
MOLT-4 = tested on: MOLT-4
KM12 = tested on: KM12
SF-295 = tested on: SF-295
HCT-15 = tested on: HCT-15
SNB-19 = tested on: SNB-19
HT-29 = tested on: HT-29
SNB-75 = tested on: SNB-75
NCI-H226 = tested on: NCI-H226
U-251 = tested on: U-251
NCI-H522 = tested on: NCI-H522
OVCAR-5 = tested on: OVCAR-5
SK-MEL-28 = tested on: SK-MEL-28
ACHN = tested on: ACHN
A549 = tested on: A549
NCI-H460 = tested on: NCI-H460
Malme-3M = tested on: Malme-3M
CAKI-1 = tested on: CAKI-1
MDA-MB-435 = tested on: MDA-MB-435
A498 = tested on: A498
786-0 = tested on: 786-0
NCI/ADR-RES = tested on: NCI/ADR-RES
SF-268 = tested on: SF-268
MDA-MB-231 = tested on: MDA-MB-231
UACC-62 = tested on: UACC-62
HCC 2998 = tested on: HCC 2998
COLO 205 = tested on: COLO 205
MDA-N = tested on: MDA-N
SW-620 = tested on: SW-620
SF-539 = tested on: SF-539
K562 = tested on: K562
IGROV-1 = tested on: IGROV-1
CCRF-CEM = tested on: CCRF-CEM
UACC-257 = tested on: UACC-257
SK-MEL-2 = tested on: SK-MEL-2
Hs-578T = tested on: Hs-578T
M14 = tested on: M14
SK-MEL-5 = tested on: SK-MEL-5
SR = tested on: SR
UO-31 = tested on: UO-31
HL-60 = tested on: HL-60
NCI-H23 = tested on: NCI-H23
T47D = tested on: T47D
OVCAR-3 = tested on: OVCAR-3
DU-145 = tested on: DU-145
RPMI-8226 = tested on: RPMI-8226

Cc1ccc(-c2c(C#N)c(-c3ccc([N+](=O)[O-])cc3)c(C#N)c(=O)n2NS(=O)(=O)c2ccccc2)cc1
GI50 (OVCAR-4): 28.1 µM (inactive) | GI50 (MCF7): 19.2 µM (inactive) | GI50 (HOP-62): 30.1 µM (inactive) | GI50 (BT-549): 10.4 µM (inactive) | GI50 (SK-OV-3): 22.4 µM (inactive) | GI50 (HCT-116): 31.7 µM (inactive) | GI50 (LOX IMVI): 25.9 µM (inactive) | GI50 (RXF 393): 29.4 µM (inactive) | GI50 (HOP-92): 13.3 µM (inactive) | GI50 (EKVX): 40.5 µM (inactive) | GI50 (SN12C): 96.2 µM (inactive) | GI50 (PC-3): 25.3 µM (inactive) | GI50 (OVCAR-8): 31.6 µM (inactive) | GI50 (TK-10): 41.3 µM (inactive) | GI50 (MOLT-4): 18.9 µM (inactive) | GI50 (KM12): 31.6 µM (inactive) | GI50 (SF-295): 27.8 µM (inactive) | GI50 (HCT-15): 36 µM | GI50 (SNB-19): 42.6 µM (inactive) | GI50 (HT-29): 41.8 µM (inactive) | GI50 (SNB-75): 28.4 µM (inactive) | GI50 (NCI-H226): 70.3 µM (inactive) | GI50 (U-251): 40.3 µM (inactive) | GI50 (NCI-H522): 28.6 µM (inactive) | GI50 (OVCAR-5): 64.4 µM (inactive) | GI50 (SK-MEL-28): 36.3 µM (inactive) | GI50 (ACHN): 39.2 µM (inactive) | GI50 (A549): 36.6 µM (inactive) | GI50 (NCI-H460): 32.3 µM (inactive) | GI50 (Malme-3M): 29.9 µM (inactive) | GI50 (CAKI-1): 97.3 µM (inactive) | GI50 (MDA-MB-435): 54.5 µM (inactive) | GI50 (A498): 57.7 µM (inactive) | GI50 (786-0): 45.3 µM (inactive) | GI50 (NCI/ADR-RES): 26.1 µM (inactive) | GI50 (SF-268): 49 µM (inactive) | GI50 (MDA-MB-231): 38.7 µM (inactive) | GI50 (UACC-62): 20.9 µM (inactive) | GI50 (HCC 2998): 25.5 µM (inactive) | GI50 (COLO 205): 53.1 µM (inactive) | GI50 (MDA-N): 84.3 µM (inactive) | GI50 (SW-620): 38 µM (inactive) | GI50 (SF-539): 32.3 µM (inactive) | GI50 (K562): 39.3 µM (inactive) | GI50 (IGROV-1): 30.9 µM (inactive) | GI50 (CCRF-CEM): 19 µM (inactive) | GI50 (UACC-257): 88.3 µM (inactive) | GI50 (SK-MEL-2): 44 µM (inactive) | GI50 (Hs-578T): 0.589 µM (active) | GI50 (M14): 32.5 µM (inactive) | GI50 (SK-MEL-5): 12.1 µM (inactive)

CCOC(=O)C(NC(=O)Nc1ccc(Cl)cc1)(OC)C(F)(F)F (centres undefined)
GI50 (BT-549): > 100 µM (inactive) | GI50 (SK-OV-3): > 100 µM (inactive) | GI50 (HCT-116): 1.94 µM (inactive) | GI50 (LOX IMVI): > 100 µM (inactive) | GI50 (RXF 393): > 100 µM (inactive) | GI50 (EKVX): 56.5 µM (inactive) | GI50 (SN12C): 41 µM (inactive) | GI50 (PC-3): 32.3 µM (inactive) | GI50 (OVCAR-8): 49.3 µM (inactive) | GI50 (TK-10): 30.7 µM (inactive) | GI50 (SR): 9.23 µM (inactive) | GI50 (UO-31): 5.75 µM (inactive) | GI50 (HCT-15): 0.248 µM | GI50 (SNB-19): 22.2 µM (inactive) | GI50 (HT-29): > 100 µM (inactive) | GI50 (SNB-75): > 100 µM (inactive) | GI50 (U-251): 52.5 µM (inactive) | GI50 (OVCAR-5): 21.5 µM (inactive) | GI50 (SK-MEL-28): > 100 µM (inactive) | GI50 (ACHN): 0.757 µM (active) | GI50 (HL-60): 9.68 µM (inactive) | GI50 (A549): 8.49 µM (inactive) | GI50 (CAKI-1): 74.3 µM (inactive) | GI50 (MDA-MB-435): 3.25 µM (inactive) | GI50 (A498): 14 µM (inactive) | GI50 (786-0): 13.8 µM (inactive) | GI50 (NCI/ADR-RES): 4.66 µM (inactive) | GI50 (SF-268): 27.7 µM (inactive) | GI50 (HCC 2998): 7.45 µM (inactive) | GI50 (COLO 205): 12.2 µM (inactive) | GI50 (MDA-N): 3.12 µM (inactive) | GI50 (NCI-H23): 37.9 µM (inactive) | GI50 (SW-620): 64.4 µM (inactive) | GI50 (SF-539): 19.7 µM (inactive) | GI50 (K562): 0.832 µM (active) | GI50 (IGROV-1): > 100 µM (inactive) | GI50 (UACC-257): 21.9 µM (inactive) | GI50 (SK-MEL-2): 0.973 µM (active) | GI50 (T47D): 70 µM (inactive) | GI50 (Hs-578T): 42.4 µM (inactive) | GI50 (M14): 8.24 µM (inactive) | GI50 (SK-MEL-5): 15.1 µM (inactive)

O=C1CCC2(c3ccc(F)cc3)Nc3ncncc3N12 (centres undefined)
GI50 (OVCAR-4): > 10 µM (inactive) | GI50 (MCF7): 2.32 µM (inactive) | GI50 (BT-549): > 10 µM (inactive) | GI50 (LOX IMVI): > 10 µM (inactive) | GI50 (HOP-92): > 10 µM (inactive) | GI50 (EKVX): 9.93 µM (inactive) | GI50 (SN12C): > 10 µM (inactive) | GI50 (PC-3): > 10 µM (inactive) | GI50 (OVCAR-8): > 10 µM (inactive) | GI50 (TK-10): > 10 µM (inactive) | GI50 (SR): > 10 µM (inactive) | GI50 (MOLT-4): > 10 µM (inactive) | GI50 (KM12): > 10 µM (inactive) | GI50 (SF-295): > 10 µM (inactive) | GI50 (UO-31): > 10 µM (inactive) | GI50 (HCT-15): > 10 µM | GI50 (SNB-19): > 10 µM (inactive) | GI50 (HT-29): > 10 µM (inactive) | GI50 (SNB-75): > 10 µM (inactive) | GI50 (NCI-H226): > 10 µM (inactive) | GI50 (U-251): > 10 µM (inactive) | GI50 (NCI-H522): > 10 µM (inactive) | GI50 (OVCAR-3): > 10 µM (inactive) | GI50 (OVCAR-5): > 10 µM (inactive) | GI50 (ACHN): > 10 µM (inactive) | GI50 (A549): > 10 µM (inactive) | GI50 (NCI-H460): > 10 µM (inactive) | GI50 (Malme-3M): > 10 µM (inactive) | GI50 (DU-145): > 10 µM (inactive) | GI50 (MDA-MB-435): > 10 µM (inactive) | GI50 (786-0): > 10 µM (inactive) | GI50 (NCI/ADR-RES): > 10 µM (inactive) | GI50 (SF-268): > 10 µM (inactive) | GI50 (UACC-62): > 10 µM (inactive) | GI50 (HCC 2998): > 10 µM (inactive) | GI50 (MDA-N): > 10 µM (inactive) | GI50 (NCI-H23): > 10 µM (inactive) | GI50 (SW-620): > 10 µM (inactive) | GI50 (SF-539): > 10 µM (inactive) | GI50 (K562): > 10 µM (inactive) | GI50 (IGROV-1): > 10 µM (inactive) | GI50 (CCRF-CEM): > 10 µM (inactive) | GI50 (UACC-257): > 10 µM (inactive) | GI50 (SK-MEL-2): > 10 µM (inactive) | GI50 (Hs-578T): > 10 µM (inactive) | GI50 (M14): > 10 µM (inactive)

Cc1c2ccccc2cc2cccc[n+]12
GI50 (MCF7): 57.7 µM (inactive) | GI50 (HOP-62): 21.6 µM (inactive) | GI50 (BT-549): 23.4 µM (inactive) | GI50 (HCT-116): 37.2 µM (inactive) | GI50 (LOX IMVI): 27.8 µM (inactive) | GI50 (RXF 393): 23.3 µM (inactive) | GI50 (EKVX): 4.72 µM (inactive) | GI50 (SN12C): 29.6 µM (inactive) | GI50 (PC-3): 30 µM (inactive) | GI50 (OVCAR-8): 31.6 µM (inactive) | GI50 (TK-10): 39.8 µM (inactive) | GI50 (SR): 12.6 µM (inactive) | GI50 (MOLT-4): 13 µM (inactive) | GI50 (KM12): 6.52 µM (inactive) | GI50 (SF-295): 34.8 µM (inactive) | GI50 (UO-31): 10.6 µM (inactive) | GI50 (HCT-15): > 100 µM | GI50 (SNB-19): 28.6 µM (inactive) | GI50 (HT-29): 29.2 µM (inactive) | GI50 (SNB-75): 21.9 µM (inactive) | GI50 (NCI-H522): 12.9 µM (inactive) | GI50 (OVCAR-3): 24.4 µM (inactive) | GI50 (OVCAR-5): 56.6 µM (inactive) | GI50 (SK-MEL-28): 25.7 µM (inactive) | GI50 (ACHN): 62.1 µM (inactive) | GI50 (HL-60): 29.3 µM (inactive) | GI50 (A549): 6.82 µM (inactive) | GI50 (NCI-H460): 35.2 µM (inactive) | GI50 (Malme-3M): 11.3 µM (inactive) | GI50 (DU-145): 61.4 µM (inactive) | GI50 (MDA-MB-435): 36 µM (inactive) | GI50 (786-0): 61.8 µM (inactive) | GI50 (RPMI-8226): 18.7 µM (inactive) | GI50 (NCI/ADR-RES): > 100 µM (inactive) | GI50 (SF-268): 10.4 µM (inactive) | GI50 (MDA-MB-231): 37.7 µM (inactive) | GI50 (UACC-62): 41.7 µM (inactive) | GI50 (HCC 2998): 15.2 µM (inactive) | GI50 (COLO 205): 19.8 µM (inactive) | GI50 (MDA-N): 37.8 µM (inactive) | GI50 (NCI-H23): 18.2 µM (inactive) | GI50 (SW-620): 8.34 µM (inactive) | GI50 (SF-539): 32.1 µM (inactive) | GI50 (K562): 10.4 µM (inactive) | GI50 (IGROV-1): 26.1 µM (inactive) | GI50 (CCRF-CEM): 31.9 µM (inactive) | GI50 (UACC-257): 19.2 µM (inactive) | GI50 (SK-MEL-2): 41.3 µM (inactive) | GI50 (Hs-578T): 25.6 µM (inactive) | GI50 (SK-MEL-5): 27.4 µM (inactive)
